Measurements from patent publication US8247211B2, “Glycopeptide antibiotics” (American Cyanamid Company, priority 2001, dated 2012).

Legend:
Assay in all cases: In vitro antibacterial evaluation: minimum inhibitory concentration (MIC), broth dilution method
Assay type in all cases: cell-based
Details in all cases: 18 hours at 35° C.
Enterococcus sp. = system: Enterococcus sp.
Summary of the method: (§1)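 An MIC is reported for each organism as the least concentration giving inhibition, using broth dilution over 64-0.06 μg/mL with a 5×10^5 CFU/mL inoculum.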

Streptococcus sp. = system: Streptococcus sp.
Summary of the method: as §1

Escherichia coli = system: Escherichia coli
Summary of the method: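 MIC read as lowest drug level preventing visible growth. Organisms at 5×10^5 CFU/mL were exposed to a 64-0.06 μg/mL dilution series in Muller-Hinton II […] following NCCLS broth dilution standard M7-A2.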

Staphylococcus sp. = system: Staphylococcus sp.
Summary of the method: as §1

[1] = broth dilution, inoculum 5×10^5 CFU/mL

CC(c1ccccc1)C1NC(=O)CNC(=O)C(CO)NC(=O)C(C(O)C2CNC(=N)N2C2OC(CO)C(O)C(O)C2O)NC(=O)C(C(O)C2CNC(=N)N2)NC(=O)C(Cc2ccc(OC3OC(CO)C(OC4OC(CO)C(OCC=C(c5ccccc5)c5ccccc5)C(O)C4O)C(O)C3O)cc2)NC1=O (stereo not drawn) [Example 241a, Cyclo[glycyl-β-methylphenylalanyl-O-[4-O-[4-O-(3,3-diphenylprop-2-en-1-yl)hexopyranosyl]-hexopyranosyl]tyrosyl-3-(2-iminoimidazolidin-4-yl)seryl-3-[3-hexopyranosyl-2-iminoimidazolidin-4-yl)serylseryl]]
4 µg/mL: MIC Enterococcus faecalis (ATCC 29212) (Enterococcus sp.; Enterococcus faecalis (ATCC 29212)) | MIC Enterococcus faecalis (GC 2242) (Enterococcus sp.; Enterococcus faecalis (GC 2242)) | MIC Enterococcus faecalis (GC 4552) (Enterococcus sp.; Enterococcus faecalis (GC 4552)) | MIC Enterococcus faecalis (GC 4553) (Enterococcus sp.; Enterococcus faecalis (GC 4553)) | MIC Enterococcus faecalis (GC 4554) (Enterococcus sp.; Enterococcus faecalis (GC 4554)) | MIC Enterococcus faecalis (GC 2242) (Enterococcus sp.; [1]) | MIC Coagulase Negative Staphylococcus (GC 4547) (Staphylococcus sp.; Coagulase Negative Staphylococcus (GC 4547)) | MIC Coagulase Negative Staphylococcus (GC 4551) (Staphylococcus sp.; Coagulase Negative Staphylococcus (GC 4551)) | MIC Staphylococcus aureus (GC 4544) (Staphylococcus sp.; Staphylococcus aureus (GC 4544))
<0.06 µg/mL: MIC Streptococcus agalactiae (GC 4564) (Streptococcus sp.; Streptococcus agalactiae (GC 4564)) | MIC Streptococcus pneumoniae (ATCC 6301) (Streptococcus sp.; Streptococcus pneumoniae (ATCC 6301)) | MIC Streptococcus pneumoniae (GC 1894) (Streptococcus sp.; Streptococcus pneumoniae (GC 1894)) | MIC Streptococcus pneumoniae (GC 4565) (Streptococcus sp.; Streptococcus pneumoniae (GC 4565)) | MIC Streptococcus pyogenes (GC 4563) (Streptococcus sp.; Streptococcus pyogenes (GC 4563)) | MIC Streptococcus agalactiae (GC 4564) (Streptococcus sp.; [1]) | MIC Streptococcus pneumoniae (ATCC 6301) (Streptococcus sp.; [1]) | MIC Streptococcus pneumoniae (GC 1894) (Streptococcus sp.; [1]) | MIC Streptococcus pneumoniae (GC 4565) (Streptococcus sp.; [1]) | MIC Streptococcus pyogenes (GC 4563) (Streptococcus sp.; [1])
>64 µg/mL: MIC Escherichia coli (ATCC 25922) (Escherichia coli; Escherichia coli (ATCC 25922)) | MIC Escherichia coli (GC 4559) (Escherichia coli; Escherichia coli (GC 4559))
2 µg/mL: MIC Enterococcus avium (GC 4558) (Enterococcus sp.; Enterococcus avium (GC 4558)) | MIC Enterococcus faecalis (GC 2691) (Enterococcus sp.; Enterococcus faecalis (GC 2691)) | MIC Enterococcus faecalis (GC 3059) (Enterococcus sp.; Enterococcus faecalis (GC 3059)) | MIC Enterococcus faecalis (GC 6189) (Enterococcus sp.; Enterococcus faecalis (GC 6189)) | MIC Enterococcus faecium (GC 2243) (Enterococcus sp.; Enterococcus faecium (GC 2243)) | MIC Enterococcus faecium (GC 4556) (Enterococcus sp.; Enterococcus faecium (GC 4556)) | MIC Enterococcus faecium (GC 4557) (Enterococcus sp.; Enterococcus faecium (GC 4557)) | MIC Enterococcus faecalis (GC 2691) (Enterococcus sp.; [1]) | MIC Enterococcus faecalis (GC 3059) (Enterococcus sp.; [1]) | MIC Escherichia coli (GC 4560) (Escherichia coli; Escherichia coli (GC 4560)) | MIC Coagulase Negative Staphylococcus (GC 4548) (Staphylococcus sp.; Coagulase Negative Staphylococcus (GC 4548)) | MIC Staphylococcus aureus (ATCC 29213) (Staphylococcus sp.; Staphylococcus aureus (ATCC 29213)) | MIC Staphylococcus aureus (GC 1131) (Staphylococcus sp.; Staphylococcus aureus (GC 1131)) | MIC Staphylococcus aureus (GC 3051) (Staphylococcus sp.; Staphylococcus aureus (GC 3051)) | MIC Staphylococcus aureus (GC 3053) (Staphylococcus sp.; Staphylococcus aureus (GC 3053)) | MIC Staphylococcus aureus (GC 4541) (Staphylococcus sp.; Staphylococcus aureus (GC 4541)) | MIC Staphylococcus aureus (GC 4542) (Staphylococcus sp.; Staphylococcus aureus (GC 4542)) | MIC Staphylococcus aureus (GC 4545) (Staphylococcus sp.; Staphylococcus aureus (GC 4545)) | MIC Staphylococcus aureus-SMITH (GC 4543) (Staphylococcus sp.; Staphylococcus aureus-SMITH (GC 4543)) | MIC Staphylococcus haemolyticus (GC 4546) (Staphylococcus sp.; Staphylococcus haemolyticus (GC 4546))
1 µg/mL: MIC Coagulase Negative Staphylococcus (GC 4549) (Staphylococcus sp.; Coagulase Negative Staphylococcus (GC 4549)) | MIC Coagulase Negative Staphylococcus (GC 6257) (Staphylococcus sp.; Coagulase Negative Staphylococcus (GC 6257))
